Results published in PubChem BioAssay AID330 (DTP/NCI, 2004).
Where “and” joins values, the source holds several entries; their conditions need not be identical. Equal values may be shown once. Toxic doses and inconclusive results are not listed. How the source made its calls: active means survival T/C of 150% or more; inactive means T/C below 125% in these data.

Test system: P388 leukemia ip, CD2F1 mice, survival T/C
Experiment: NCI In Vivo Anticancer Drug Screen. Data for tumor model P388 Leukemia (intraperitoneal) in CD2F1 (CDF1) mice
Conditions: endpoint: median survival time, higher = longer survival
Method in brief: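 Mice carrying the transplanted tumor received test compound or vehicle. Survival was recorded in each group, and the value is the treated-group measurement divided by that of the vehicle-treated control group.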

[1] = dose: 12.5 mg/kg/injection, schedule: Q01DX009 (ip), vehicle: Klucel (hydroxypropylcellulose) (HPC)
[2] = dose: 25.0 mg/kg/injection, schedule: Q01DX009 (ip), vehicle: Klucel (hydroxypropylcellulose) (HPC)
[3] = dose: 50.0 mg/kg/injection, schedule: Q01DX009 (ip), vehicle: Klucel (hydroxypropylcellulose) (HPC)
[4] = dose: 50.0 mg/kg/injection, schedule: Q01DX005 (ip), vehicle: saline with Tween-80
[5] = dose: 100.0 mg/kg/injection, schedule: Q01DX005 (ip), vehicle: saline with Tween-80
[6] = dose: 60.0 mg/kg/injection, schedule: Q01DX005 (ip), vehicle: saline with Tween-80
[7] = dose: 120.0 mg/kg/injection, schedule: Q01DX005 (ip), vehicle: saline with Tween-80
[8] = dose: 50.0 mg/kg/injection, schedule: Q01DX009 (ip), vehicle: saline with Tween-80
[9] = dose: 50.0 mg/kg/injection, schedule: Q01DX005 (ip), vehicle: Klucel (hydroxypropylcellulose) (HPC)
[10] = dose: 100.0 mg/kg/injection, schedule: Q01DX005 (ip), vehicle: Klucel (hydroxypropylcellulose) (HPC)
[11] = dose: 200.0 mg/kg/injection, schedule: Q01DX005 (ip), vehicle: Klucel (hydroxypropylcellulose) (HPC)
[12] = dose: 25.0 mg/kg/injection, schedule: Q01DX009 (ip), vehicle: saline with Tween-80
[13] = dose: 100.0 mg/kg/injection, schedule: Q01DX009 (ip), vehicle: saline with Tween-80
[14] = dose: 100.0 mg/kg/injection, schedule: Q01DX009 (ip), vehicle: Klucel (hydroxypropylcellulose) (HPC)
[15] = dose: 200.0 mg/kg/injection, schedule: Q01DX009 (ip), vehicle: Klucel (hydroxypropylcellulose) (HPC)

Measured: T/C

CCOC(=O)c1c(-c2ccccc2)oc2ccc(NS(=O)(=O)c3ccccc3)cc12
inactive: dose: 100.0 mg/kg/injection, schedule: Q01DX001 (ip), vehicle: saline with Tween-80 95 % of control | dose: 200.0 mg/kg/injection, schedule: Q01DX001 (ip), vehicle: saline with Tween-80 104 % of control | dose: 400.0 mg/kg/injection, schedule: Q01DX001 (ip), vehicle: saline with Tween-80 95 % of control

Cc1ccc(OP(=O)(Oc2ccc(C)cc2)Oc2ccc(C)cc2)cc1.Cc1ccc(OP(=O)(Oc2ccc(C)cc2)Oc2ccc(C)cc2)cc1.Cc1ccc(OP(=O)(Oc2ccc(C)cc2)Oc2ccc(C)cc2)cc1.Cc1ccc(OP(=O)(Oc2ccc(C)cc2)Oc2cccc(C)c2)cc1.[Cd+2].[O-][Cl+3]([O-])([O-])O
inactive: [1] 95 % of control | [2] 96 % of control | [3] 93 % of control and 96 % of control

CCOc1c(N=Nc2ccccc2OC)c(-c2ccccc2)nn1C(N)=S
inactive: [4] 88 % of control | [5] 87 % of control | dose: 200.0 mg/kg/injection, schedule: Q01DX005 (ip), vehicle: saline with Tween-80 98 % of control

COc1ccc(NC(=O)Oc2ccc3c(C)cc(=O)oc3c2)c(OC)c1 (tested in a mixture with another compound)
inactive: [6] 106 % of control and 117 % of control | [7] 120 % of control and 121 % of control

O=C(OCC(O)CO)c1c(Cl)c(Cl)c(Cl)c(Cl)c1-c1c2cc(I)c(=O)c(I)c-2oc2c(I)c(O)c(I)cc12 (centres undefined)
inactive: dose: 60.0 mg/kg/injection, schedule: Q01DX005 (ip), vehicle: saline 94 % of control | dose: 120.0 mg/kg/injection, schedule: Q01DX005 (ip), vehicle: saline 100 % of control | dose: 240.0 mg/kg/injection, schedule: Q01DX005 (ip), vehicle: saline 102 % of control

CNc1ncnc2[nH]ncc12
inactive: [8] 100 % of control | dose: 200.0 mg/kg/injection, schedule: Q04DX003 (ip), vehicle: saline sonified 109 % of control

CCCN(CCC)c1nsc(N)n1
inactive: dose: 7.5 mg/kg/injection, schedule: Q01DX009 (ip), vehicle: saline with Tween-80 113 % of control | dose: 15.0 mg/kg/injection, schedule: Q01DX009 (ip), vehicle: saline with Tween-80 113 % of control | dose: 30.0 mg/kg/injection, schedule: Q01DX009 (ip), vehicle: saline with Tween-80 118 % of control

CC1(C)CC(C)(O)N(CCc2ccccc2)C(=S)N1 (centres undefined)
inactive: [9] 106 % of control | [10] 98 % of control | [11] 98 % of control

Cn1/c(=N\NC(=O)c2ccncc2)sc2ccccc21
inactive: dose: 6.25 mg/kg/injection, schedule: Q01DX009 (ip), vehicle: Klucel (hydroxypropylcellulose) (HPC) 110 % of control | [1] 107 % of control | [2] 115 % of control

Nc1nnc(Cc2cccc3ccccc23)o1
inactive: [6] 109 % of control | [7] 106 % of control | dose: 240.0 mg/kg/injection, schedule: Q01DX005 (ip), vehicle: saline with Tween-80 103 % of control

[Cl-].[Cl-].[Co+3].[NH-]CC[NH-].[NH-]CC[NH-].[O-][Cl+3]([O-])([O-])O
inactive: [12] 102 % of control | [8] 105 % of control and 117 % of control | [13] 111 % of control and 123 % of control

CCN=C1C=CC(=C(c2ccc(N)cc2)c2ccc(N(CC)CC)c(C)c2)C=C1
inactive: dose: 1.56 mg/kg/injection, schedule: Q01DX005 (ip), vehicle: saline 106 % of control | dose: 3.12 mg/kg/injection, schedule: Q01DX005 (ip), vehicle: saline 112 % of control

CSC(SC)(SC)C(=O)N(C)C
inactive: [12] 95 % of control | [8] 93 % of control | [13] 96 % of control

CS(=O)(=O)OCCCCC/C=C/CCCCCCC1C=CCC1 (centres undefined)
inactive: dose: 100.0 mg/kg/injection, schedule: Q01DX001 (ip), vehicle: saline 98 % of control | dose: 200.0 mg/kg/injection, schedule: Q01DX001 (ip), vehicle: saline 99 % of control | dose: 400.0 mg/kg/injection, schedule: Q01DX001 (ip), vehicle: saline 100 % of control

CCc1nc2c(Br)c3oc(CC)nc3c(Br)c2o1
inactive: dose: 60.0 mg/kg/injection, schedule: Q01DX005 (ip), vehicle: Klucel (hydroxypropylcellulose) (HPC) 103 % of control | dose: 120.0 mg/kg/injection, schedule: Q01DX005 (ip), vehicle: Klucel (hydroxypropylcellulose) (HPC) 100 % of control | dose: 240.0 mg/kg/injection, schedule: Q01DX005 (ip), vehicle: Klucel (hydroxypropylcellulose) (HPC) 90 % of control

COC(=O)C(C(C)=O)C(=O)c1cc([N+](=O)[O-])cc([N+](=O)[O-])c1 (centres undefined)
inactive: dose: 100.0 mg/kg/injection, schedule: Q04DX002 (ip), vehicle: Klucel (hydroxypropylcellulose) (HPC) 98 % of control | dose: 200.0 mg/kg/injection, schedule: Q04DX002 (ip), vehicle: Klucel (hydroxypropylcellulose) (HPC) 100 % of control | dose: 400.0 mg/kg/injection, schedule: Q04DX002 (ip), vehicle: Klucel (hydroxypropylcellulose) (HPC) 97 % of control

CCCCCCC1(/C=C/c2ccc(Cl)cc2Cl)OCC(C)(C)CO1
inactive: dose: 50.0 mg/kg/injection, schedule: Q01DX009 (ip), vehicle: saline + alcohol 102 % of control | dose: 100.0 mg/kg/injection, schedule: Q01DX009 (ip), vehicle: saline + alcohol 102 % of control | dose: 200.0 mg/kg/injection, schedule: Q01DX009 (ip), vehicle: saline + alcohol 102 % of control

O=c1[nH]c2ccccc2n1C1CCN(CCOc2ccccc2)CC1
inactive: [3] 95 % of control | [14] 102 % of control | [15] 95 % of control

CCCc1cc2ccccc2c2ccccc12
inactive: [9] 102 % of control | [10] 96 % of control | [11] 99 % of control

Cc1ccnc(NN=O)n1
inactive: dose: 3.12 mg/kg/injection, schedule: Q01DX009 (ip), vehicle: water 99 % of control | dose: 6.25 mg/kg/injection, schedule: Q01DX009 (ip), vehicle: water 113 % of control | dose: 12.5 mg/kg/injection, schedule: Q01DX009 (ip), vehicle: water 98 % of control | dose: 25.0 mg/kg/injection, schedule: Q01DX009 (ip), vehicle: water 100 % of control and 105 % of control | dose: 50.0 mg/kg/injection, schedule: Q01DX009 (ip), vehicle: water 113 % of control and 90 % of control | dose: 100.0 mg/kg/injection, schedule: Q01DX009 (ip), vehicle: water 100 % of control | dose: 200.0 mg/kg/injection, schedule: Q01DX009 (ip), vehicle: water 104 % of control

Cc1ccc([B-]23OCC[N+]2(CNC(=O)C2=C(O)C4(O)C(=O)C5=C(O)c6c(O)cccc6C(C)(O)C5CC4C(N(C)C)C2=O)CCO3)cc1 (centres undefined)
inactive: [9] 108 % of control | [10] 108 % of control | [11] 113 % of control

O=C1C(Br)=C(Br)C(=O)c2c(Cl)ccc(O)c21
inactive: [1] 101 % of control | [2] 98 % of control | [3] 101 % of control and 105 % of control | [14] 88 % of control | [15] 100 % of control

CC(C)CC(C(=O)O)N1C(=O)C=CC1=O (centres undefined)
inactive: [1] 93 % of control | [2] 107 % of control

CN1CCC2(CC1)OCCCO2
inactive: dose: 25.0 mg/kg/injection, schedule: Q01DX005 (ip), vehicle: saline with Tween-80 102 % of control | [4] 94 % of control | dose: 50.0 mg/kg/injection, schedule: Q01DX005 (ip), vehicle: saline 99 % of control | dose: 75.0 mg/kg/injection, schedule: Q01DX001 (ip), vehicle: saline with Tween-80 105 % of control | [5] 100 % of control and 88 % of control | dose: 100.0 mg/kg/injection, schedule: Q01DX005 (ip), vehicle: saline 96 % of control | dose: 125.0 mg/kg/injection, schedule: Q01DX001 (ip), vehicle: saline with Tween-80 101 % of control | dose: 200.0 mg/kg/injection, schedule: Q01DX005 (ip), vehicle: saline 102 % of control | dose: 250.0 mg/kg/injection, schedule: Q01DX001 (ip), vehicle: saline with Tween-80 93 % of control

COc1nccnn1
inactive: dose: 50.0 mg/kg/injection, schedule: Q01DX009 (ip), vehicle: saline 95 % of control | dose: 100.0 mg/kg/injection, schedule: Q01DX009 (ip), vehicle: saline 91 % of control | dose: 200.0 mg/kg/injection, schedule: Q01DX009 (ip), vehicle: saline 95 % of control | dose: 400.0 mg/kg/injection, schedule: Q01DX009 (ip), vehicle: saline 107 % of control
